Experimental data as given in patent US6355799B1, “Substituted benzene compounds, process for their preparation, and herbicidal and defoliant compositions containing them” (ISK Americas Incorporated, priority 1997, dated 2002).

What was measured:
Format in all cases: in vivo
[1] = test system: redroot pigweed (Amaranthus retroflexus, AMARE); experiment: Pre-emerge test, greenhouse herbicide activity screening; settings: pre-emerge, 14 days after application, scale 0-100
Summary of the method: (§1)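 Compounds in acetone were track-sprayed at 187 l/ha, 15–1000 g ai/ha, onto sandy loam pots. Pre-emerge seeds were sown one day before spraying, with surface watering afterwards. Post-emerge plants were at the 2–3 leaf stage and sprayed with 0.25% v/v non-ionic surfactant. Injury was rated 0–100 at 14 days.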

[2] = test system: barnyardgrass (Echinochloa crus-galli, ECHCG); experiment: as above; settings: pre-emerge, 14 days after application, scale 0-100
Summary of the method: as §1

[3] = test system: green foxtail (Setaria viridis, SETVI); experiment: as above; settings: pre-emerge, 14 days after application, scale 0-100
Summary of the method: as §1

[4] = test system: ivyleaf morningglory (Ipomoea hederacea, IPOHE); experiment: as above; settings: pre-emerge, 14 days after application, scale 0-100
Summary of the method: as §1

[5] = test system: johnsongrass (Sorghum halepense, SORHA); experiment: as above; settings: pre-emerge, 14 days after application, scale 0-100
Summary of the method: as §1

[6] = test system: lambsquarters (Chenopodium album, CHEAL); experiment: as above; settings: pre-emerge, 14 days after application, scale 0-100
Summary of the method: as §1

[7] = test system: large crabgrass (Digitaria sanguinalis, DIGSA); experiment: as above; settings: pre-emerge, 14 days after application, scale 0-100
Summary of the method: as §1

[8] = test system: sicklepod (Cassia obtusifolia, CASOB); experiment: as above; settings: pre-emerge, 14 days after application, scale 0-100
Summary of the method: as §1

[9] = test system: velvetleaf (Abutilon theophrasti, ABUTH); experiment: as above; settings: pre-emerge, 14 days after application, scale 0-100
Summary of the method: as §1

[10] = test system: field corn (Zea mays L., var. Dekalb 535, CORN); experiment: Pre-emerge test, crop safety; settings: pre-emerge, 14 days after application, scale 0-100
Summary of the method: (§2)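 Sandy loam pots; pre-emerge: sown 1 d pre-spray, surface-watered after, then bottom-watered. Post-emerge: sown 8–21 d before, 2–3 leaf stage, + 0.25% v/v NIS, bottom-watered. Acetone, 187 l/ha track spray, 15–1000 g ai/ha. 0–100 injury score, day 14.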

[11] = test system: upland rice (Oryza sp., var. Tebonnet, RICE); experiment: Pre-emerge test, crop safety; settings: pre-emerge, 14 days after application, scale 0-100
Summary of the method: as §2

[12] = test system: barnyardgrass (Echinochloa crus-galli, ECHCG); experiment: Post-emerge test, greenhouse herbicide activity screening; settings: post-emerge, 14 days after application, rating scale 0-100
Summary of the method: as §1

[13] = test system: green foxtail (Setaria viridis, SETVI); experiment: as above; settings: post-emerge, 14 days after application, rating scale 0-100
Summary of the method: as §1

[14] = test system: ivyleaf morningglory (Ipomoea hederacea, IPOHE); experiment: as above; settings: post-emerge, 14 days after application, rating scale 0-100
Summary of the method: as §1

[15] = test system: lambsquarters (Chenopodium album, CHEAL); experiment: as above; settings: post-emerge, 14 days after application, rating scale 0-100
Summary of the method: as §1

[16] = test system: large crabgrass (Digitaria sanguinalis, DIGSA); experiment: as above; settings: post-emerge, 14 days after application, rating scale 0-100
Summary of the method: as §1

[17] = test system: redroot pigweed (Amaranthus retroflexus, AMARE); experiment: as above; settings: post-emerge, 14 days after application, rating scale 0-100
Summary of the method: as §1

[18] = test system: sicklepod (Cassia obtusifolia, CASOB); experiment: as above; settings: post-emerge, 14 days after application, rating scale 0-100
Summary of the method: as §1

[19] = test system: velvetleaf (Abutilon theophrasti, ABUTH); experiment: as above; settings: post-emerge, 14 days after application, rating scale 0-100
Summary of the method: as §1

[20] = test system: field corn (Zea mays L., var. Dekalb 535, CORN); experiment: Post-emerge test, crop safety; settings: post-emerge, 14 days after application, rating scale 0-100
Summary of the method: as §1

[21] = test system: upland rice (Oryza sp., var. Tebonnet, RICE); experiment: Post-emerge test, crop safety; settings: post-emerge, 14 days after application, rating scale 0-100
Summary of the method: as §1

`COc1c(Cl)cc(F)c(-n2c(=O)cc(C(F)(F)F)n(C)c2=O)c1NC(=O)CCc1cc(C)ccc1C` [2-132] was tested, and the “phytotoxicity rating AMARE” value ([1]; 63 g ai/ha) was 100, the “phytotoxicity rating AMARE” value ([1]; 250 g ai/ha) was 100 and the “phytotoxicity rating ECHCG” value ([2]; 63 g ai/ha) was 30. The “phytotoxicity rating ECHCG” value ([2]; 250 g ai/ha) was 40, the “phytotoxicity rating SETVI” value ([3]; 63 g ai/ha) was 90 and the “phytotoxicity rating SETVI” value ([3]; 250 g ai/ha) was 100. The “phytotoxicity rating IPOHE” value ([4]; 63 g ai/ha) was 20, the “phytotoxicity rating IPOHE” value ([4]; 250 g ai/ha) was 40 and the “phytotoxicity rating SORHA” value ([5]; 63 g ai/ha) was 30. The “phytotoxicity rating SORHA” value ([5]; 250 g ai/ha) was 50, the “phytotoxicity rating CHEAL” value ([6]; 63 g ai/ha) was 100 and the “phytotoxicity rating CHEAL” value ([6]; 250 g ai/ha) was 100. The “phytotoxicity rating DIGSA” value ([7]; 63 g ai/ha) was 60, the “phytotoxicity rating DIGSA” value ([7]; 250 g ai/ha) was 100 and the “phytotoxicity rating CASOB” value ([8]; 63 g ai/ha) was 50. For the same compound, the “phytotoxicity rating CASOB” value ([8]; 250 g ai/ha) was 100, the “phytotoxicity rating ABUTH” value ([9]; 63 g ai/ha) was 100 and the “phytotoxicity rating ABUTH” value ([9]; 250 g ai/ha) was 100. For the same compound, the “phytotoxicity rating CORN (crop damage)” value ([10]; 63 g ai/ha) was 5, the “phytotoxicity rating CORN (crop damage)” value ([10]; 250 g ai/ha) was 15 and the “phytotoxicity rating RICE (crop damage)” value ([11]; 63 g ai/ha) was 15. The “phytotoxicity rating RICE (crop damage)” value ([11]; 250 g ai/ha) was 45, the ECHCG phytotoxicity rating ([12]; 63 g ai/ha) was 20 and the ECHCG phytotoxicity rating ([12]; 250 g ai/ha) was 40. The SETVI phytotoxicity rating ([13]; 63 g ai/ha) was 40, the SETVI phytotoxicity rating ([13]; 250 g ai/ha) was 60 and the IPOHE phytotoxicity rating ([14]; 63 g ai/ha) was 100. The IPOHE phytotoxicity rating ([14]; 250 g ai/ha) was 100, the CHEAL phytotoxicity rating ([15]; 63 g ai/ha) was 100 and the CHEAL phytotoxicity rating ([15]; 250 g ai/ha) was 100. The DIGSA phytotoxicity rating ([16]; 63 g ai/ha) was 10, the DIGSA phytotoxicity rating ([16]; 250 g ai/ha) was 25 and the AMARE phytotoxicity rating ([17]; 63 g ai/ha) was 100. The AMARE phytotoxicity rating ([17]; 250 g ai/ha) was 100, the CASOB phytotoxicity rating ([18]; 63 g ai/ha) was 100 and the CASOB phytotoxicity rating ([18]; 250 g ai/ha) was 99. The ABUTH phytotoxicity rating ([19]; 63 g ai/ha) was 100, the ABUTH phytotoxicity rating ([19]; 250 g ai/ha) was 100 and the “CORN phytotoxicity rating (crop damage)” value ([20]; 63 g ai/ha) was 60. The “CORN phytotoxicity rating (crop damage)” value ([20]; 250 g ai/ha) was 75, the “RICE phytotoxicity rating (crop damage)” value ([21]; 63 g ai/ha) was 50 and the “RICE phytotoxicity rating (crop damage)” value ([21]; 250 g ai/ha) was 80.
